The record followed here is patent US20230331918A1, “AMMONIUM AND SULFONIUM SULFONATE ZWITTERIONS AND POLYMERS DERIVED THEREFROM” (University of Massachusetts, priority 2022, published 2023).

Converted amounts (≈) assume the structure as drawn.

The data set can be described thus: Solubility of monomers and polymers in water, methanol, chloroform. The data set is classed as physicochemical.

Text: Monomer solubility (e.g., in water, methanol, or chloroform) varied with the selection of R-groups on the ammonium cation.

As to `C=Cc1ccc(CC(CC[N+](CCCC)(CCCC)CCCC)S(=O)(=O)[O-])cc1` (centres unmarked) [tri-n-butyl derivative, 4-(Tributylammonio)-1-(4-vinylphenyl)butane-2-sulfonate], where the note is “similar concentration (˜500 mg mL-1)”, the “Monomer solubility in MeOH” value is given as “required slightly elevated temperatures to attain solubility in MeOH”.
For `C=Cc1ccc(CC(CC[N+](CCC)(CCC)CCC)S(=O)(=O)[O-])cc1` (centres unmarked) [tri-n-propyl derivative, 4-(Tripropylammonio)-1-(4-vinylphenyl)butane-2-sulfonate], where the note is “methanol, organic solvent or mixture, monomer, room temperature, read-out: Monomer solubility in MeOH (clear solution)”, the solubility is approximately 500 mg/mL (≈ 1310 mM).
